Test results from US20240279176A1, “SUBSTITUTED TRICYCLIC HETEROCYCLIC COMPOUNDS AS METALLO-BETA-LACTAMASE INHIBITORS” (priority 2021, published 2024).
Read-outs that look alike come from different tables or passages of the source.

Tests used:
[1] = tested on: Klebsiella pneumoniae ATCC BAA-2146; assay: Checkerboard synergy assay in combination with Imipenem; format: cell-based; details: K. pneumoniae ATCC BAA-2146; for Fold reduction in Imipenem MIC in the presence of compounds (μg/mL) 4: compound at 4 μg/mL; for Fold reduction in Imipenem MIC in the presence of compounds (μg/mL) 8: compound at 8 μg/mL; for Fold reduction in Imipenem MIC in the presence of compounds (μg/mL) 16: compound at 16 μg/mL; for Fold reduction in Imipenem MIC in the presence of compounds (μg/mL) 32: compound at 32 μg/mL
NDM-1 = NDM-1 (Klebsiella pneumoniae, UniProt C7C422); assay: Enzyme activity: IC50 in fluorescence assay with cephalosporin substrate FC5; format: biochemical; details: 50 pM NDM-1, 1.5 μM FC5, 10 min pre-incubation
IMP-1 = IMP-1 (Serratia marcescens, UniProt P52699); assay: as above; format: biochemical; details: 100 pM IMP-1, 10 μM FC5, 10 min pre-incubation
[2] = tested on: Klebsiella pneumoniae ATCC BAA-2146; assay: Checkerboard synergy assay in combination with Meropenem; format: cell-based; details: K. pneumoniae ATCC BAA-2146; for Fold reduction in meropenem MIC in the presence of compounds (μg/mL) 8: compound at 8 μg/mL; for Fold reduction in meropenem MIC in the presence of compounds (μg/mL) 16: compound at 16 μg/mL; for Fold reduction in meropenem MIC in the presence of compounds (μg/mL) 32: compound at 32 μg/mL; for Fold reduction in meropenem MIC in the presence of compounds (μg/mL) 4: compound at 4 μg/mL
[3] = tested on: Klebsiella pneumoniae ATCC BAA-2146; assay: Minimum inhibitory concentration (MIC), broth-microdilution (CLSI); format: cell-based; details: ATCCBAA2146, compound alone, K. pneumoniae ATCC BAA-2146, read-out: Intrinsic MIC

Chain of IMP-1 (P52699 19-246, looked up, species assumed): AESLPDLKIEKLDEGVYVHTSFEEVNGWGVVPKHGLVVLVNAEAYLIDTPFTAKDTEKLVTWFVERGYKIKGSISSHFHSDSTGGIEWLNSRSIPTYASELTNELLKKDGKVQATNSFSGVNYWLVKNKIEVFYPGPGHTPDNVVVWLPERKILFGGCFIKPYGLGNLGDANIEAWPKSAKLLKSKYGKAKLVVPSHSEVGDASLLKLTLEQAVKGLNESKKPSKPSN
Chain of NDM-1 (C7C422 29-270, looked up): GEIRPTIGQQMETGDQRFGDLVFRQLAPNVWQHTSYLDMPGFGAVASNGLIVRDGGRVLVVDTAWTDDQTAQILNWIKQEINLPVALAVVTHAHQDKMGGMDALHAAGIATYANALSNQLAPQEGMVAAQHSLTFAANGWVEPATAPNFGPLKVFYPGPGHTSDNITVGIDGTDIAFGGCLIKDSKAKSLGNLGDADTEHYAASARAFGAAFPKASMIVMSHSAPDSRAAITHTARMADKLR

SMILES	Fold reduction in Imipenem MIC in the presence of compounds (μg/mL) 4 [1]	Fold reduction in Imipenem MIC in the presence of compounds (μg/mL) 8 [1]	Fold reduction in Imipenem MIC in the presence of compounds (μg/mL) 16 [1]	Fold reduction in Imipenem MIC in the presence of compounds (μg/mL) 32 [1]	IC50 (NDM-1)	IC50 (IMP-1)	Fold reduction in meropenem MIC in the presence of compounds (μg/mL) 8 [2]	Fold reduction in meropenem MIC in the presence of compounds (μg/mL) 16 [2]	Fold reduction in meropenem MIC in the presence of compounds (μg/mL) 32 [2]	MIC ([3]; Imipenem series)	MIC ([3]; meropenem series)	Fold reduction in meropenem MIC in the presence of compounds (μg/mL) 4 [2]
O=C(O)c1[nH]c2c(c1-c1cncc(F)c1)CCc1ccccc1-2 [Example 53, 3-(5-fluoropyridin-3-yl)-4,5-dihydro-1H-benzo[g]indole-2-carboxylic Acid]	4 fold	4 fold	4 fold	8 fold	0.334 µM	3.74 µM	2 fold	4 fold	4 fold	> 128 µg/mL	> 128 µg/mL	
O=C(O)c1[nH]c2c(c1-c1cncc(Cl)c1)CCc1ccccc1-2 [Example 54, 3-(5-chloropyridin-3-yl)-4,5-dihydro-1H-benzo[g]indole-2-carboxylic Acid]	4 fold	4 fold	8 fold	8 fold	0.075 µM	1.36 µM	4 fold	8 fold	8 fold	> 128 µg/mL	> 128 µg/mL	4 fold
COc1cc(F)ccc1-c1c(C(=O)O)[nH]c2c1CCc1ccccc1-2 [Example 56, 3-(4-fluoro-2-methoxyphenyl)-4,5-dihydro-1H-benzo[g]indole-2-carboxylic Acid]				2 fold	0.143 µM	2.67 µM	4 fold	4 fold	8 fold	> 128 µg/mL	> 128 µg/mL	4 fold
COc1cc(Cl)cc(-c2c(C(=O)O)[nH]c3c2CCc2ccccc2-3)c1 [Example 59, 3-(3-chloro-5-methoxyphenyl)-4,5-dihydro-1H-benzo[g]indole-2-carboxylic Acid]	4 fold	4 fold	8 fold	16 fold	0.015 µM	0.552 µM	8 fold	8 fold	16 fold	> 128 µg/mL	> 128 µg/mL	4 fold
